Reference: the supplement of paper PMC10307832

Columns and labels:
Test in all cases: relative viability (nuclei count vs DMSO), 5 days (fraction); higher = more cells survive
[1] = test system: SW 1573
How it was run: (§1)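 Cells from lung cancer lines were seeded into 1536-well plates and, one day later, dosed by pin tool. Treatments were either a single drug or a fixed dose of an anchor drug with five library-drug doses (not always all listed) in √10 steps. After 5 days, nuclei were stained in a one-step fixation (final 0.05% Triton X-100, 1% formaldehyde, 1 ug/ml Hoechst) and counted on 4× images, and relative viability is the treated-to-vehicle nuclei ratio, as the median of duplicate plates.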

[2] = test system: NCI-H596
How it was run: as §1

[3] = test system: LC-2-ad
How it was run: as §1

[4] = test system: NCI-H2023
How it was run: as §1

[5] = test system: NCI-H2347
How it was run: as §1

[6] = test system: NCI-H1993
How it was run: as §1

[7] = test system: NCI-H441
How it was run: as §1

[8] = test system: NCI-H1650
How it was run: as §1

[9] = test system: NCI-H520
How it was run: as §1

[10] = test system: HCC-78
How it was run: as §1

[11] = test system: NCI-H1793
How it was run: as §1

[12] = test system: A-427
How it was run: as §1

[13] = test system: COR-L23
How it was run: as §1

[14] = test system: LOU-NH91
How it was run: as §1

[15] = test system: HCC-44
How it was run: as §1

[16] = test system: EKVX
How it was run: as §1

[17] = test system: HOP-62
How it was run: as §1

[18] = test system: LXF-289
How it was run: as §1

[19] = test system: NCI-H1734
How it was run: as §1

[20] = test system: BEN
How it was run: as §1

[21] = test system: NCI-H358
How it was run: as §1

[22] = test system: NCI-H522
How it was run: as §1

[23] = test system: ABC-1
How it was run: as §1

C=C1C(=O)O[C@@H](CCCCCCCC)[C@@H]1C(=O)O [C-75] + CC1(C)CCC(c2ccc(Cl)cc2)=C(CN2CCN(c3ccc(C(=O)NS(=O)(=O)c4ccc(N[C@H](CCN5CCOCC5)CSc5ccccc5)c(S(=O)(=O)C(F)(F)F)c4)cc3)CC2)C1 [Navitoclax] (partner 0.5 µM)
relative viability ([1]; first compound 0.08 µM): 1.01 | relative viability ([1]; first compound 0.253 µM): 0.969 | relative viability ([1]; first compound 0.8 µM): 1.21 | relative viability ([1]; first compound 2.53 µM): 1.06 | relative viability ([1]; first compound 8 µM): 0.875 | relative viability ([2]; first compound 0.08 µM): 0.961 | relative viability ([2]; first compound 0.253 µM): 1.16 | relative viability ([2]; first compound 0.8 µM): 0.901 | relative viability ([2]; first compound 2.53 µM): 0.771 | relative viability ([2]; first compound 8 µM): 0.897 | relative viability ([3]; first compound 0.08 µM): 0.53 | relative viability ([3]; first compound 0.253 µM): 0.56 | relative viability ([3]; first compound 0.8 µM): 0.479 | relative viability ([3]; first compound 8 µM): 0.474 | relative viability ([4]; first compound 0.08 µM): 0.971 | relative viability ([4]; first compound 0.253 µM): 1.04 | relative viability ([4]; first compound 0.8 µM): 0.959 | relative viability ([4]; first compound 2.53 µM): 0.659 | relative viability ([4]; first compound 8 µM): 0.945 | relative viability ([5]; first compound 0.08 µM): 0.688 | relative viability ([5]; first compound 0.253 µM): 1.03 | relative viability ([5]; first compound 0.8 µM): 0.755 | relative viability ([5]; first compound 2.53 µM): 0.758 | relative viability ([5]; first compound 8 µM): 0.714 | relative viability ([6]; first compound 0.08 µM): 1.03 | relative viability ([6]; first compound 0.253 µM): 0.944 | relative viability ([6]; first compound 0.8 µM): 0.995 | relative viability ([6]; first compound 2.53 µM): 0.938 | relative viability ([6]; first compound 8 µM): 1.11 | relative viability ([7]; first compound 0.08 µM): 0.566 | relative viability ([7]; first compound 0.253 µM): 0.618 | relative viability ([7]; first compound 0.8 µM): 0.599 | relative viability ([7]; first compound 2.53 µM): 0.401 | relative viability ([7]; first compound 8 µM): 0.488 | relative viability ([8]; first compound 0.08 µM): 1.22 | relative viability ([8]; first compound 0.253 µM): 1.36 | relative viability ([8]; first compound 0.8 µM): 1.22 | relative viability ([8]; first compound 2.53 µM): 1.36 | relative viability ([8]; first compound 8 µM): 0.97 | relative viability ([9]; first compound 0.08 µM): 1.13 | relative viability ([9]; first compound 0.253 µM): 1.24 | relative viability ([9]; first compound 0.8 µM): 1 | relative viability ([9]; first compound 2.53 µM): 0.837 | relative viability ([9]; first compound 8 µM): 0.82 | relative viability ([10]; first compound 0.08 µM): 0.791 | relative viability ([10]; first compound 0.253 µM): 0.834 | relative viability ([10]; first compound 0.8 µM): 0.75 | relative viability ([10]; first compound 2.53 µM): 0.708 | relative viability ([10]; first compound 8 µM): 0.864 | relative viability ([11]; first compound 0.08 µM): 0.494 | relative viability ([11]; first compound 0.253 µM): 0.564 | relative viability ([11]; first compound 0.8 µM): 0.313 | relative viability ([11]; first compound 2.53 µM): 0.308 | relative viability ([11]; first compound 8 µM): 0.29 | relative viability ([12]; first compound 0.08 µM): 0.935 | relative viability ([12]; first compound 0.253 µM): 1.04 | relative viability ([12]; first compound 0.8 µM): 0.915 | relative viability ([12]; first compound 2.53 µM): 0.903 | relative viability ([12]; first compound 8 µM): 0.93 | relative viability ([13]; first compound 0.08 µM): 0.966 | relative viability ([13]; first compound 0.253 µM): 0.884 | relative viability ([13]; first compound 0.8 µM): 0.955 | relative viability ([13]; first compound 2.53 µM): 0.989 | relative viability ([13]; first compound 8 µM): 0.964 | relative viability ([14]; first compound 0.08 µM): 0.756 | relative viability ([14]; first compound 0.253 µM): 0.679 | relative viability ([14]; first compound 0.8 µM): 0.643 | relative viability ([14]; first compound 2.53 µM): 0.55 | relative viability ([14]; first compound 8 µM): 0.776 | relative viability ([15]; first compound 0.08 µM): 0.972 | relative viability ([15]; first compound 0.253 µM): 0.959 | relative viability ([15]; first compound 0.8 µM): 0.905 | relative viability ([15]; first compound 2.53 µM): 0.791 | relative viability ([15]; first compound 8 µM): 1.02 | relative viability ([16]; first compound 0.08 µM): 0.944 | relative viability ([16]; first compound 0.253 µM): 0.893 | relative viability ([16]; first compound 0.8 µM): 0.831 | relative viability ([16]; first compound 2.53 µM): 0.864 | relative viability ([16]; first compound 8 µM): 1.03 | relative viability ([17]; first compound 0.08 µM): 1.02 | relative viability ([17]; first compound 0.253 µM): 1.25 | relative viability ([17]; first compound 0.8 µM): 1.04 | relative viability ([17]; first compound 2.53 µM): 0.889 | relative viability ([17]; first compound 8 µM): 0.857 | relative viability ([18]; first compound 0.08 µM): 0.896 | relative viability ([18]; first compound 0.253 µM): 0.999 | relative viability ([18]; first compound 0.8 µM): 0.91 | relative viability ([18]; first compound 2.53 µM): 0.873 | relative viability ([18]; first compound 8 µM): 0.928 | relative viability ([19]; first compound 0.08 µM): 0.828 | relative viability ([19]; first compound 0.253 µM): 0.778 | relative viability ([19]; first compound 0.8 µM): 0.815 | relative viability ([19]; first compound 2.53 µM): 0.629 | relative viability ([19]; first compound 8 µM): 0.754 | relative viability ([20]; first compound 0.08 µM): 0.0695 | relative viability ([20]; first compound 0.253 µM): 0.0673 | relative viability ([20]; first compound 0.8 µM): 0.0656 | relative viability ([20]; first compound 2.53 µM): 0.0589 | relative viability ([20]; first compound 8 µM): 0.0596

Oc1nc(-c2ccc(C(F)(F)F)cc2)nc2c1CSCC2 [XAV939] + NC(=O)Nc1cc(-c2cccc(F)c2)sc1C(=O)N[C@H]1CCCNC1 [AZD7762] (partner 0.2 µM)
relative viability ([2]; first compound 0.08 µM): 0.918 | relative viability ([2]; first compound 0.253 µM): 0.896 | relative viability ([2]; first compound 0.8 µM): 1.02 | relative viability ([2]; first compound 2.53 µM): 1.02 | relative viability ([3]; first compound 0.08 µM): 0.865 | relative viability ([3]; first compound 0.253 µM): 0.711 | relative viability ([3]; first compound 0.8 µM): 0.806 | relative viability ([3]; first compound 2.53 µM): 0.724 | relative viability ([21]; first compound 0.08 µM): 0.476 | relative viability ([21]; first compound 0.253 µM): 0.438 | relative viability ([21]; first compound 0.8 µM): 0.344 | relative viability ([21]; first compound 2.53 µM): 0.448 | relative viability ([5]; first compound 0.08 µM): 0.803 | relative viability ([5]; first compound 0.253 µM): 0.612 | relative viability ([5]; first compound 0.8 µM): 0.796 | relative viability ([5]; first compound 2.53 µM): 0.58 | relative viability ([6]; first compound 0.08 µM): 0.923 | relative viability ([6]; first compound 0.253 µM): 0.569 | relative viability ([6]; first compound 0.8 µM): 0.62 | relative viability ([6]; first compound 2.53 µM): 0.653 | relative viability ([7]; first compound 0.08 µM): 1.08 | relative viability ([7]; first compound 0.253 µM): 0.947 | relative viability ([7]; first compound 0.8 µM): 1.27 | relative viability ([7]; first compound 2.53 µM): 1.27 | relative viability ([22]; first compound 0.08 µM): 0.914 | relative viability ([22]; first compound 0.253 µM): 0.797 | relative viability ([22]; first compound 0.8 µM): 0.825 | relative viability ([22]; first compound 2.53 µM): 0.819 | relative viability ([10]; first compound 0.08 µM): 0.595 | relative viability ([10]; first compound 0.253 µM): 0.514 | relative viability ([10]; first compound 0.8 µM): 0.648 | relative viability ([10]; first compound 2.53 µM): 0.527 | relative viability ([11]; first compound 0.08 µM): 0.989 | relative viability ([11]; first compound 0.253 µM): 0.307 | relative viability ([11]; first compound 0.8 µM): 0.355 | relative viability ([11]; first compound 2.53 µM): 0.312 | relative viability ([23]; first compound 0.253 µM): 0.537 | relative viability ([23]; first compound 0.8 µM): 0.768 | relative viability ([23]; first compound 2.53 µM): 0.676 | relative viability ([12]; first compound 0.08 µM): 0.816 | relative viability ([12]; first compound 0.253 µM): 0.684 | relative viability ([12]; first compound 0.8 µM): 0.706 | relative viability ([12]; first compound 2.53 µM): 0.696 | relative viability ([14]; first compound 0.08 µM): 0.762 | relative viability ([14]; first compound 0.253 µM): 0.681 | relative viability ([14]; first compound 0.8 µM): 0.687 | relative viability ([14]; first compound 2.53 µM): 0.692 | relative viability ([15]; first compound 0.08 µM): 0.899 | relative viability ([15]; first compound 0.253 µM): 0.89 | relative viability ([15]; first compound 0.8 µM): 0.953 | relative viability ([15]; first compound 2.53 µM): 0.872 | relative viability ([16]; first compound 0.08 µM): 0.685 | relative viability ([16]; first compound 0.253 µM): 0.646 | relative viability ([16]; first compound 0.8 µM): 0.362 | relative viability ([16]; first compound 2.53 µM): 0.56 | relative viability ([17]; first compound 0.08 µM): 0.827 | relative viability ([17]; first compound 0.253 µM): 0.503 | relative viability ([17]; first compound 0.8 µM): 0.613 | relative viability ([17]; first compound 2.53 µM): 0.323 | relative viability ([18]; first compound 0.08 µM): 1.16 | relative viability ([18]; first compound 0.253 µM): 1.04 | relative viability ([18]; first compound 0.8 µM): 1.1 | relative viability ([18]; first compound 2.53 µM): 1.21 | relative viability ([19]; first compound 0.08 µM): 0.617 | relative viability ([19]; first compound 0.253 µM): 0.515 | relative viability ([19]; first compound 0.8 µM): 0.59 | relative viability ([19]; first compound 2.53 µM): 0.51 | relative viability ([20]; first compound 0.08 µM): 0.629 | relative viability ([20]; first compound 0.253 µM): 0.651 | relative viability ([20]; first compound 0.8 µM): 0.619 | relative viability ([20]; first compound 2.53 µM): 0.597
